Assay results from patent publication US9944618B2, “Inhibiting neurotransmitter reuptake” (Mayo Foundation for Medical Education and Research, priority 2013, dated 2018).

Key:
[1] = molecular target: human norepinephrine transporter (Homo sapiens (Human), UniProt P23975); assay: Human NET (norepinephrine transporter) uptake assay; assay type: cell-based; settings: read-out: hNET Ki
In short: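 HEK293F cells transfected with human NET were thawed, plated at about 60,000 cells/well and held at 37 °C for at least 3 h. Compounds came from 10 mM DMSO stocks, with nomifensine as control, in 1×HBSS/0.02 M HEPES. Uptake was followed with a neurotransmitter transporter dye, dosed as % of vendor reconstitution, in triplicate.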

[2] = molecular target: human dopamine transporter (Homo sapiens (Human), UniProt Q01959); assay: Human DAT (dopamine transporter) uptake assay; assay type: cell-based; settings: read-out: hDAT Ki
In short: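 Uptake inhibition was measured in HEK293F cells transfected with human DAT, plated at ~60,000 cells/well and settled ≥3 h at 37 °C. Compounds came from 10 mM DMSO stocks. Read-out was uptake of a fluorescent neurotransmitter transporter dye in HBSS with 0.02 M HEPES, with dye level given as % of vendor reconstitution; n=3.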

[3] = molecular target: human serotonin transporter (Homo sapiens (Human), UniProt P31645); assay: Human SERT (serotonin transporter) uptake assay; assay type: cell-based; settings: read-out: hSERT Ki
In short: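 HEK293F cells transfected with human SERT, about 60,000 per well, settled for ≥3 h at 37° C before compound addition. Uptake was followed with a fluorescent transporter dye in HBSS with 0.02 M HEPES. Background came from 10 μM fluoxetine, nomifensine was the control, n=3.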

hERG = hERG (Homo sapiens (Human), UniProt Q12809); assay: Human ERG (hERG) assay, hERG currents in hERG-expressing CHO cells; assay type: cell-based; settings: hERG-expressing CHO cells
CYP3A4 = CYP3A4 (Homo sapiens (Human), UniProt P08684); assay: Cytochrome P450 inhibition assay, recombinant CYP3A4 (BFC substrate); assay type: in vitro ADME; settings: recombinant enzyme
CYP2D6 = CYP2D6 (Homo sapiens (Human), UniProt P10635); assay: Cytochrome P450 inhibition assay, recombinant CYP2D6 (MAMC substrate); assay type: in vitro ADME; settings: recombinant enzyme
[4] = pKa of basic centres (Table 1); assay type: physicochemical; settings: first base, e.g., an aliphatic primary, secondary, or tertiary amine; read-out: pKa (Base 1)

Sequence of CYP2D6 (P10635 whole entry): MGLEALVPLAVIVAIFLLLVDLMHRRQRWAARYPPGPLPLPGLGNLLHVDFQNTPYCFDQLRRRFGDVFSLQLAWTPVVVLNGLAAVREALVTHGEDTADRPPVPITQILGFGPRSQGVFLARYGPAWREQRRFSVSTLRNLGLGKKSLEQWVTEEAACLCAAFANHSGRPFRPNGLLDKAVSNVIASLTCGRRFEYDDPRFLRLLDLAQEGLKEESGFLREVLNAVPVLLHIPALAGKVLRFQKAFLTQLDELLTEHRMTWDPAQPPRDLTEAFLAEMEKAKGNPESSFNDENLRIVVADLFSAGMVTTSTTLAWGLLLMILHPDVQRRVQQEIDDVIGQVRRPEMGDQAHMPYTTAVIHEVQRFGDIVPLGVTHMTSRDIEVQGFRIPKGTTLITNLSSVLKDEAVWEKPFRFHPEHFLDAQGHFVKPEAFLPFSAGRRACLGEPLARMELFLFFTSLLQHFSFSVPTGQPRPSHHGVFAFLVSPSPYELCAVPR
Sequence of human dopamine transporter (Q01959 whole entry): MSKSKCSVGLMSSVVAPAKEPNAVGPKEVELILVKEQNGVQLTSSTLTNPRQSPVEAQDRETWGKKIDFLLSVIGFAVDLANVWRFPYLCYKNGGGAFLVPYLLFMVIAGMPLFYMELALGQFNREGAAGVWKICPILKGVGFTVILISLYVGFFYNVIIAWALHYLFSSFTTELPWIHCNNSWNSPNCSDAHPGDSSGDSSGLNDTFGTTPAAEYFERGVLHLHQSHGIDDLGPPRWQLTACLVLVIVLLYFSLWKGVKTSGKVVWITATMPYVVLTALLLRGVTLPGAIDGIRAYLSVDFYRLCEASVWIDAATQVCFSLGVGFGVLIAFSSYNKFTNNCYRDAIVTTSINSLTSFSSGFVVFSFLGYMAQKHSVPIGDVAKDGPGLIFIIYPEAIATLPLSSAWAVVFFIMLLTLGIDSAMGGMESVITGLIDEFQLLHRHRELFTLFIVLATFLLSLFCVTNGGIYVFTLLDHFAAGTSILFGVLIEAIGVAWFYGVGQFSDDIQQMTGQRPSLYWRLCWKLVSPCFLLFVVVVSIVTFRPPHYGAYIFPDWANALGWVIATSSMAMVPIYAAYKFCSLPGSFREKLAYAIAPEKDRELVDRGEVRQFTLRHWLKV
Sequence of human norepinephrine transporter (P23975 whole entry): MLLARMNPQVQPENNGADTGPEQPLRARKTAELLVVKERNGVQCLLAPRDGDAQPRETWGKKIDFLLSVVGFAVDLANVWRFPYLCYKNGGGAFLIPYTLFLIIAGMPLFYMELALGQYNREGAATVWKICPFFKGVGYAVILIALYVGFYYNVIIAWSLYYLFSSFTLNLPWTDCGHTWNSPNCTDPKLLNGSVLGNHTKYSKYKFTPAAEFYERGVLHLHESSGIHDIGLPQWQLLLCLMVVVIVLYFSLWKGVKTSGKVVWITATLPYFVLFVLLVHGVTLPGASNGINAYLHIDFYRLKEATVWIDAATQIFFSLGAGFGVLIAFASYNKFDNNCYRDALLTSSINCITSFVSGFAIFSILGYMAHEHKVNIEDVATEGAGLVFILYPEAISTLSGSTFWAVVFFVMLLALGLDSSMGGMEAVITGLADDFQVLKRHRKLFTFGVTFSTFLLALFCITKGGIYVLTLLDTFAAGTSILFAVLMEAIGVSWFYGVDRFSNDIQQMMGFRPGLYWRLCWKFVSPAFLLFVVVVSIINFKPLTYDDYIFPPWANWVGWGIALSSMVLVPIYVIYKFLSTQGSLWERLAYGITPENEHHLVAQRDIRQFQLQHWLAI
Sequence of human serotonin transporter (P31645 whole entry): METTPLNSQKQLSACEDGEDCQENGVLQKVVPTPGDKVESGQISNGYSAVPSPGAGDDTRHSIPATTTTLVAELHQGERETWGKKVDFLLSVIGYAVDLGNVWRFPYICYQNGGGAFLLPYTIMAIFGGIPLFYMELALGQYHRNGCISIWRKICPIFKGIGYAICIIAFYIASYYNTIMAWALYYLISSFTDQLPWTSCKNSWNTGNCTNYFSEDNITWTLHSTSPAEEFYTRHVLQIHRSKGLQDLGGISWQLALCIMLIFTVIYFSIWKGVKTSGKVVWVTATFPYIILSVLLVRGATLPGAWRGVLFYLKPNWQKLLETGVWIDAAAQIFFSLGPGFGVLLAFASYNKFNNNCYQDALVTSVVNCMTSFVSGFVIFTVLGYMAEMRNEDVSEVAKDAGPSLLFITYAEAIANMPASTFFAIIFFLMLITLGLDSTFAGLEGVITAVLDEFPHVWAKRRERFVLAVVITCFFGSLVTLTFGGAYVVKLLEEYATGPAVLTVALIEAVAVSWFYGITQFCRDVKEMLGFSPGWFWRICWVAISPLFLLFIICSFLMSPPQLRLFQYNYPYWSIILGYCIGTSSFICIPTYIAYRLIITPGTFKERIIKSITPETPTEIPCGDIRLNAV
Sequence of CYP3A4 (P08684 whole entry): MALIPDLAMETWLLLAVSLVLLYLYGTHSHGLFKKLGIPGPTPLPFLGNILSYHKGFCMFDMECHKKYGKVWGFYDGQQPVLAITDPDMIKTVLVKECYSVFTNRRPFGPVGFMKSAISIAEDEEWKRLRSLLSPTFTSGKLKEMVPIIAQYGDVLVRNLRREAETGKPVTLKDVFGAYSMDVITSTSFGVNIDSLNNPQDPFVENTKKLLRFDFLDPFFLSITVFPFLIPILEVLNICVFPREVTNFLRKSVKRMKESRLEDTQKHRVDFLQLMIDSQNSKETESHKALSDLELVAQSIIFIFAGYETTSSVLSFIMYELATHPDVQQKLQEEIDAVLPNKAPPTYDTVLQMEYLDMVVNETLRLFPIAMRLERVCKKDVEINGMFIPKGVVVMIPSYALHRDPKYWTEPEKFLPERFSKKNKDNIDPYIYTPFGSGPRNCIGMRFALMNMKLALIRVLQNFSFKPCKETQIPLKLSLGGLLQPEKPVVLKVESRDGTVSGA
Sequence of hERG (Q12809 whole entry): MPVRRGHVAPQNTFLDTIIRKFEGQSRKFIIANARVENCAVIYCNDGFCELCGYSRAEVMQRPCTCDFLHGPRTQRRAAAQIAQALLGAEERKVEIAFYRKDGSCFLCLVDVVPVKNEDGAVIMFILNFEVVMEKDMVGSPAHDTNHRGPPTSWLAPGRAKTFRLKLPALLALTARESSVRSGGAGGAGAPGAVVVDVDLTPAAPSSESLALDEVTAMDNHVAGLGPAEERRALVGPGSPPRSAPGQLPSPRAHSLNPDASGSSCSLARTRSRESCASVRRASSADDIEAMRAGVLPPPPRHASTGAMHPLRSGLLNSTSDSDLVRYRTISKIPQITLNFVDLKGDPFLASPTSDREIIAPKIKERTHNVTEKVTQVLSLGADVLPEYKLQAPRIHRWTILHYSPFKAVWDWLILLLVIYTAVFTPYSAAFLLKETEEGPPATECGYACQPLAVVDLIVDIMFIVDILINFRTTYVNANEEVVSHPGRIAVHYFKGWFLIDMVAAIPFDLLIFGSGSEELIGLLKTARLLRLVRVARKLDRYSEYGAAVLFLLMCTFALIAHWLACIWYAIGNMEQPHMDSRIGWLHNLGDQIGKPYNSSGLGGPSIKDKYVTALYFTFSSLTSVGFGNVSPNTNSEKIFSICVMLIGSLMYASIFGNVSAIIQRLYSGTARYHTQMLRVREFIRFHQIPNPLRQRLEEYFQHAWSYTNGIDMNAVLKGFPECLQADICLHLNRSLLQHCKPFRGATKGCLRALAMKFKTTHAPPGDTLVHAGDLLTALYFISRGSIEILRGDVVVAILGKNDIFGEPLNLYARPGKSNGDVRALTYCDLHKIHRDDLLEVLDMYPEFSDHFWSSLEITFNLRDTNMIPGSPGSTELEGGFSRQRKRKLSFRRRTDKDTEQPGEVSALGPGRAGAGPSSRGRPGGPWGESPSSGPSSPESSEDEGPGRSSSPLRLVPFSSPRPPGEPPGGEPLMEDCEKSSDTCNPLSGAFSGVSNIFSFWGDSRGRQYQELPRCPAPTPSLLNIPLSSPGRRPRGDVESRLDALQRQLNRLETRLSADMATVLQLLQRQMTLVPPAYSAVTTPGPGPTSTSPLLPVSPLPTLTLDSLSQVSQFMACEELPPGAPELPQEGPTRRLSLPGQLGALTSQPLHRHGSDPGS

Ki [1] [nM]	Ki [2] [nM]	Ki [3] [nM]	IC50 (CYP3A4) [nM]	IC50 (CYP2D6) [nM]	pKa [4]	Structure (SMILES)	IC50 (hERG) [nM]
38.6	118	341	2900	81	9.4	CNC[C@H](c1ccc(Cl)c(Cl)c1)[C@@H](O)c1cccc(I)c1 [Compound 165]	3800
10.8	132	18.8	20000	400	9.2	CNC[C@H](c1ccc(Cl)c(Cl)c1)[C@H](O)c1cccc(OC)n1 [Compound 167]	12000
625	102	1260	200	970	9.4	CNC[C@@H](c1ccc(Cl)c(Cl)c1)[C@@H](OC)c1cccc(NS(=O)(=O)C(F)(F)F)c1 [Compound 172]	4700
